# Reference: patent US8957042B2, “Cancer treatment targeting non-coding RNA overexpression” (The Texas A&M University System, priority 2012, dated 2015)
# Tests used:
# [1] = system: cPARP, EZH2, Cyclin D1, survivin, VEGF; test: Expression of cPARP, EZH2, Cyclin D1, survivin, VEGF in Panc1 cells; format: cell-based, human; conditions: Panc1 cells transfected with siRNA
# L3.6pL cells [2] = test: Xenograft of siRNA-transfected L3.6pL cells in nude mice; format: in vivo
# Description: Xenograft study: L3.6pL cells (6×10^4 ml) were transfected with 100 nM siHOTAIR or siCT using Lipofectamine. After 48 h cells were collected and 1×10^6 cells injected into either side of the flank area of female nude mice (Harlan), and tumor volumes and weights were determined in mice from the siHOTAIR (six mice) or siCT (six mice) groups as described, and siHOTAIR levels were determined by realtime PCR. Tumor volumes were measured (0.5×length×width^2) and after 16 days, the mice were killed and tumor weights were measured and also used for further analysis as described.
# Immunohistochemistry and TUNEL assay: Tissue sections were deparaffinized in xylene and treated with graded series of alcohol and rehydrated in PBS. Antigen retrieval was done using 10 mM sodium citrate (pH 6.0-6.2) and endogenous peroxidase was blocked by 3% hydrogen peroxide in methanol for 6 min. Slides were then incubated with blocking serum (Vecstatin ABC Elite kit, Vector Laboratories, Burlingame, Calif., USA) for 45 min. Samples were then incubated overnight with Ki-67 and PCNA antibodies at 4° C. Sections were then washed in PBST and then incubated with biotinylated secondary antibody followed by streptavidin. The brown staining specific for antibody binding was developed by exposing the avidin and biotinylated peroxidase complex to diaminobenzidine reagent (Vector Laboratories) and sections were then counterstained with hematoxylin (Vector Laboratories). The in situ cell death detection POD kit was used for the TUNEL assay according to the instructions in the protocol for tissue sections.
# Panc1 cells [3] = test: Cell proliferation (cell counting) of Panc1 cells after siRNA transfection; format: cell-based, human; conditions: vs control oligonucleotide
# Description: (§1) Cell proliferation and fluorescence-activated cell sorting analysis and apoptosis: Cells were seeded in 12-well plates and transfected with either appropriate siRNA or expression vectors, and cell numbers were counted at the indicated times using a Coulter Z1 cell counter (Beckman Coulter, Fullerton, Calif., USA). For fluorescence-activated cell sorting analysis, after pancreatic cancer cells were transfected with siRNAs for either control or HOTAIR, cells were stained with propidium iodide solution and were analyzed on a FACS Calibur Flow Cytometer (Becton Dickinsin Systems, Franklin Lakes, N.J., USA).
# L3.6pL cells [4] = test: Annexin V apoptosis assay, L3.6pL; format: cell-based; conditions: L3.6pL cells transfected with siRNA
# Description: (§2) Boyden chamber cell invasion and apoptosis assays: Pancreatic cancer cells were transfected with either siRNAs (HOTAIR vs. control) or expression vectors (empty vs. HOTAIR) and cell invasion assay was performed as described previously. Cells were transfected with siCT or siHOTAIR and after 72 h, cells were stained for Annexin V using the Vibrant apoptosis assay kit as described.
# L3.6pL cells [5] = test: Cell proliferation (cell counting) of L3.6pL cells after siRNA transfection; format: cell-based; conditions: vs control oligonucleotide
# Description: as §1
# Panc1 cells [6] = test: Annexin V apoptosis assay, Panc1; format: cell-based, human; conditions: Panc1 cells transfected with siRNA
# Description: as §2
# Panc28 and Panc1 cells = test: Transwell migration of pancreatic cancer cells (Boyden chamber); format: cell-based, human; conditions: pancreatic cancer cells (not shown)
# Description: as §2
# Panc28 cells = test: Cell proliferation of Panc28 cells after siRNA transfection; format: cell-based, human; conditions: 48 and 72 hours, vs siLamin
# HOTAIRM1 = HOTAIRM1 expression in Panc1 cells; format: cell-based, human
# Excerpt: (§3) Using short interfering RNAs corresponding to SpTF genes for RNAi assays, expression of the SpTF were successfully knocked down. Sp1 was knocked down using an oligonucleotide with a sequence set forth herein as SEQ ID NO:19. Sp3 was knocked down using an oligonucleotide with a sequence set forth herein as SEQ ID NO:20. Sp4 was knocked down using an oligonucleotide with a sequence set forth herein as SEQ ID NO:21. […] FIG. 6B. In this assay, HOTAIRM was amplified and detected using forward and reverse oligonucleotide sequences set forth herein as SEQ ID NOS:3 and 4, respectively. Additionally, HOTTIP was amplified and detected using forward and reverse oligonucleotide sequences set forth herein as SEQ ID NOS:10 and 11, respectively.
# HOTTIP = HOTTIP expression in Panc1 cells; format: cell-based, human
# Excerpt: as §3
# miR-21 and miR-181b [7] = test: Oncogenic miR levels in Panc28 cells (real time PCR); format: cell-based, human; conditions: 100 nM siRNA
# Description: (§4) Panc28 and L3.6pL pancreatic cancer cell lines were seeded (6×10^4 per well) in 6-well plates in DMEM:Ham's F-12 medium supplemented with 2.5% charcoal-stripped FBS without antibiotic and left to attach for 1 d. Single and triple Sp siRNA knockdown (iSp1, iSp3, iSp4) along with iLamin as control was performed using LipofectAMINE™2000 transfection reagent as per the manufacturer's protocol to attain 100 nM concentration of siRNA in the media. Cells were left with the transfection mixture for 24-48 hrs before changing to fresh 2.5% DMEM-F12 media. Cells were harvested after 60-72 hrs for protein, mRNA or miRNA. miRNA was extracted using mirVana™ miRNA extraction kit (Applied Biosystems) according to manufacturer's protocol and was used to assess expression of various non-coding RNAs using different primers and determined by real-time PCR.
# Sp1, Sp3, and Sp4 mRNA = test: Sp1, Sp3, Sp4 mRNA knockdown in Panc1 cells; format: cell-based, human; conditions: vs siCT
# Excerpt: as §3
# HOTAIR = HOTAIR expression (RNA levels, real time PCR) in Panc1 cells; format: cell-based, human; conditions: for HOTAIR expression after siRNA transfection: vs siCT
# Description: (§5) RNA isolation and quantitative PCR: Total RNA was extracted either from pancreatic cancer cell lines or from tissue samples. Five control and siRNA HOTAIR-transfected tissue samples were analyzed, respectively, from xenograft study using mirVana RNA isolation kit from Ambion (Austin, Tex., USA), and quantitative PCR was carried out using iCycler IQTM real-time PCR detection system (Bio-Rad, Hercules, Calif., USA) after reverse transcription to cDNAs. The RT primer sets for HOTAIR, PCDHB5, PCDH10, JAM2, LAMB3, ABL2, SNA1 and LAMC2 were used as described previously (Gupta, R. A., et al., “Long Non-Coding RNA HOTAIR Reprograms Chromatin State to Promote Cancer Metastasis,” Nature 464:1071-1076, 2010). The forward and reverse oligonucleotide primer sequences specifically for HOTAIR amplification and detection are also set forth herein as SEQ ID NOS:1 and 2, respectively.
# miR-21 and miR-181b [8] = test: Oncogenic miR levels in L3.6pL cells (real time PCR); format: cell-based; conditions: 100 nM siRNA
# Description: as §4
# MALAT-1 [9] = test: MALAT-1 expression (RNA abundance) in L3.6pL cells; format: cell-based; conditions: doses of 5.0 and 7.0 μM
# Description: (§6) MALAT-1 RNA was detected using forward and reverse oligonucleotides with sequences set forth herein as SEQ ID NOS:7 and 8. Furthermore, MALAT-1 can be detected in serum obtained from pancreatic cancer patients (not shown) and this correlates with the reported high expression of MALAT-1 in pancreatic tumors compared to non-tumor tissues. Subsequent MALAT-1 knockdown studies with RNA interference were conducted using two oligonucleotides (siMALAT-1a and siMALAT-1b), the sequences of which are set forth herein as SEQ ID NOS:5 and 6, respectively. […] Thus, MALAT-1 and MALAT-1-regulated genes play a role in pancreatic cancer cell growth. […] Additional studies on the role of MALAT-1 in cell survival and kinase signaling were performed, because both pathways are affected, in part, by overexpression of growth factors and activating RAS mutations. These aspects are common in many pancreatic cancer cell lines and tumors.
# MALAT-1 [10] = test: MALAT-1 expression (RNA abundance) in Panc1 cells; format: cell-based, human; conditions: doses of 5.0 and 7.0 μM
# Description: as §6
# ROS = ROS induction in pancreatic cancer cells; format: cell-based; conditions: pancreatic cancer cells (data not shown)
# ZBTB10 = ZBTB10 expression in Panc1 cells; format: cell-based, human
# [11] = system: Sp1, Sp3, and Sp4 proteins; test: Sp1, Sp3 and Sp4 protein expression in Panc1 cells; format: cell-based, human
# miR-27a, ZBTB10 = conditions: colon cancer cells; cited from earlier work
# miR-27a = miR-27a expression in Panc1 cells; format: cell-based, human
# cyclin D1 and cyclin E [12] = test: Cyclin D1 and cyclin E mRNA in Panc1 cells; format: cell-based, human; conditions: Panc1 cells (FIG. 2C)
# Description: as §5
# cyclin D1 and cyclin E [13] = test: Cyclin D1 and cyclin E mRNA in L3.6pL cells; format: cell-based; conditions: L3.6pL cells (FIG. 2D)
# Description: as §5
# GDF15 promoter = GDF15 promoter luciferase assay in Panc1 cells; format: cell-based, human
# Description: siRNA transfection and luciferase assay: Pancreatic cancer cells were transfected with 100 nM of control siRNA or HOTAIR siRNA I (available from Sigma Aldrich, catalogue No. SASI_Hs02—00380445) or HOTAIR siRNA II (available from Sigma Aldrich, catalogue No. SASI_Hs02—00380446) using Lipofectamine 2000 (Invitrogen, Grand Island, N.Y., USA). Panc1 cells were cotransfected with control siRNA or HOTAIR siRNA I and HOTAIR II, and various length of GDF15 luciferase constructs. Luciferase activities were measured after 24 h as described previously. MISSION siRNAs for EZH2 and Suz12 were also purchased from Sigma Aldrich.
compound,measurement,setting,value
"siHOTTIP: siRNA for HOTTIP, SEQ ID NO:9 (GCACAGAGAUAAUGGCAAAUU; listed as RNA, chemistry not given here)",PARP cleavage / cPARP,[1],induced expression
same,"expression of EZH2, Cyclin D1, survivin and VEGF",[1],decreased expression
same,reduction in tumor weight,"L3.6pL cells [2]; at sacrifice, vs control",~75%
same,tumor volume,"L3.6pL cells [2]; over ten days, vs control cells",significant reduction
same,cell proliferation / cell growth,Panc1 cells [3],reductions in cell growth
same,Annexin V staining (apoptosis),L3.6pL cells [4],increased staining
same,cell proliferation / cell growth,L3.6pL cells [5],reductions in cell growth
same,Annexin V staining (apoptosis),Panc1 cells [6],increased staining
same,transwell migration,Panc28 and Panc1 cells,significantly decreased
"siMALAT-1b: siRNA for MALAT-1 knockdown, SEQ ID NO:6 (GAAUUCCGGUGAUGCGAGU; listed as RNA, chemistry not given here)",cell proliferation,Panc28 cells,significant inhibition
same,cell proliferation / cell growth,Panc1 cells [3],significant inhibition
"siSp4: siRNA for Sp4, sequence SEQ ID NO:21 (GCAGUGACACAUUAGUGAGCTT; chemistry not given here)",HOTAIRM1 expression,HOTAIRM1,significant decrease
same,HOTTIP expression,HOTTIP,significant decrease
same,miR-21 expression,miR-21 and miR-181b [7],decrease
same,miR-181b expression,miR-21 and miR-181b [7],decrease
same,"mRNA level of the respective Sp (Sp1, Sp3, Sp4)","Sp1, Sp3, and Sp4 mRNA",decreased
same,HOTAIR expression after siRNA transfection,HOTAIR,significant decrease
same,miR-21 expression,miR-21 and miR-181b [8],decrease
same,miR-181b expression,miR-21 and miR-181b [8],decrease
"siMALAT-1a: siRNA for MALAT-1 knockdown, SEQ ID NO:5 (GGCAAUAGAGGCCCUUAA; listed as RNA, chemistry not given here)",cell proliferation,Panc28 cells,significant inhibition
same,cell proliferation / cell growth,Panc1 cells [3],significant inhibition
"COC(=O)[C@@]1(C)CCC2(C)CC[C@]3(C)C(=CC(=O)[C@@H]4C5(C)C=C(C#N)C(=O)C(C)(C)[C@@H]5CCC43C)C2C1 (stereo partly drawn) [CDODA-Me, methyl 2-cyano-3,11-dioxo-18β-olean-1,12-dien-30-oate]",MALAT-1 expression,MALAT-1 [9],significantly downregulate
same,MALAT-1 expression,MALAT-1 [10],significantly downregulate
same,ROS,ROS,induce ROS
same,ZBTB10 expression,ZBTB10,induction
same,"Sp1, Sp3, and Sp4 proteins",[11]; 24 hrs (FIG. 7A),downregulate
same,Sp proteins after 48 hrs,[11]; 48 hrs,almost non-detectable
same,"induction of ZBTB10, downregulation of miR-27a and repression of Sp1, Sp3, Sp4 after cotreatment with antioxidants",[11]; cotreatment with DTT or GSH,inhibited
same,HOTAIR expression,"HOTAIR; drug treatment, 24 hrs (FIG. 7B)",decreased
same,ZBTB10,"miR-27a, ZBTB10",increased
same,microRNA (miR)-27a,"miR-27a, ZBTB10",decreased
same,miR-27a,miR-27a,downregulation
"siSp3: siRNA for Sp3, sequence SEQ ID NO:20 (GCGGCAGGUGGAGCCUUCACUTT; chemistry not given here)",HOTAIRM1 expression,HOTAIRM1,significant decrease
same,HOTTIP expression,HOTTIP,significant decrease
same,miR-21 expression,miR-21 and miR-181b [7],decrease
same,miR-181b expression,miR-21 and miR-181b [7],decrease
same,"mRNA level of the respective Sp (Sp1, Sp3, Sp4)","Sp1, Sp3, and Sp4 mRNA",decreased
same,HOTAIR expression after siRNA transfection,HOTAIR,significant decrease
same,miR-21 expression,miR-21 and miR-181b [8],decrease
same,miR-181b expression,miR-21 and miR-181b [8],decrease
"siHOTAIR II: HOTAIR siRNA II, Sigma Aldrich catalogue No. SASI_Hs02—00380446 (UGAACACGACUUGGUGUGGTT; chemistry not given here)",pancreatic tumor weight,"L3.6pL cells [2]; after 16 days, vs siCT",dramatic decrease
same,HOTAIR expression in tumors,"L3.6pL cells [2]; end of study, vs siCT",dramatic decrease
same,pancreatic tumor volume,"L3.6pL cells [2]; up to 16 days, vs siCT",dramatic decrease
same,expression of cyclin D1 and cyclin E,cyclin D1 and cyclin E [12],decreased expression
same,expression of cyclin D1 and cyclin E,cyclin D1 and cyclin E [13],decreased expression
same,Annexin V staining (apoptosis),L3.6pL cells [4],enhanced
same,"luciferase activity, GDF15 promoter constructs -3500 to +41, -1086 to +41 and -474 to +41",GDF15 promoter,decreased
same,Annexin V staining (apoptosis),Panc1 cells [6],enhanced
